According to patent US4680285A, “Treatment of malignant tumors with 2-(β-D-ribofuranosylthiazole-4-carboxamide related compounds” (priority 1985, dated 1987):
Entries after “also recorded” stand apart in the source; their conditions may differ.

Legend:
[1] = test system: P388 lymphocytic leukemia; assay: P388 lymphocytic leukemia in vivo, median survival, 30-day test (Examples 7 and 8); design: species or system CD2 F1 female mice
Experimental: For examples 7 and 8, CD2 F1 female mice were used and challenged with P388 lymphocytic leukemia tumors. […] The test period was for thirty days in both Examples 7 and 8.
For Examples 7 and 8, as well as Examples 9 and 10 below, any animal of the drug treated group which survived beyond the end of the testing period was then evaluated and placed in one of three groups. The first group was designated as cured, meaning the animal was successfully cured of the tumor. The second group designation was no-takes, meaning survival of the animal was considered to be due to failure of tumor implant. The remaining group was designated as tumor survivors meaning the animals lived beyond the test cut-off date but could not be classified as either cured or no-takes.
For both Examples 7 and 8, thirty animals were used as the control group and six animals each were used at each dose level indicated in tables 3 and 4 below in the drug treated groups. In both Examples 7 and 8, for both the control group and the drug treated groups, tumors were induced by IP inoculation of tumor seed cells on day zero followed by initiation of drug treatment on day one. For both Examples 7a and 8, saline with tween/80 was used as the drug vehicle. For Examples 7b and 7c, water was used as the drug vehicle.
In both the control group and the drug treated group in Examples 7 and 8, the test animals were inoculated on day zero IP with 10^6 seed cells of P388 lymphocytic leukemia. In both Examples 7 and 8, treatment of the drug group was started on day one and the drug was given IP once daily for nine days. Day six was utilized as the cut-off data for death attributable to toxicity of the drug. […] Efficacy of treatment was determined by comparing median survival time of the drug treated animals compared to median survival time of the control animals, and is expressed as percentage increase of treated animals/control animals (T/C) as per Example 5.
In this example drug treated animals were injected IP with the dose level noted in Table 3 below. Six animals were treated at each dose level. No control animals survived beyond day 18 with a median death date of day 12.6.
This examples was performed as per Example 7a at dose levels as noted in table 3b below. A survivor at both the 700 and 800 mg/Kg level was judged as cured. No controls survived beyond day 12 and the mean death day of the control group was day 11.
This example was run as per Example 7a above at dose levels noted in Table 3c below. All controls were dead by day 14 with a mean death day of day 11.9. At the 500 mg/Kg level, one animal was judged as a cure.
Compound 2, 2-(2,3,5-tri-O-acetyl-β-D-ribofuranosyl)thiazole-4-carboxamide was tested as per Example 7a above at dose levels noted in Table 4 below. No controls survived beyond day 18 with an average death date of day 12.6.

malignant tumors = assay: antitumor activity in vivo (general statements); details: summary statements
[2] = blood brain barrier crossing after IP injection (Example 12); format: in vivo, AKD2 F1 mice; details: inferred from activity on intracranial tumor after IP injection
Source text: For Example 12, compound 1 was given IP to a group of AKD2 F1 mice which were inflicted by intercranial inoculation with Lewis lung seed cells to establish brain tumors.
For this test, 32 control animals were used and no control animals survived beyond day eleven with a mean death data of day 9.6 for the controls. Water was used as the drug vehicle. For both the control group and the test group, tumors were induced on day zero with initiation of drug treatment on day one where compound 1 was given once daily for nine days. Test results are expressed as T/C as per example 5.

[3] = test system: type 1 herpes simplex virus; details: cited from earlier work
type 3 rhinovirus = details: cited from earlier work
viruses = details: test viruses; cited from earlier work

NC(=O)c1csc([C@@H]2O[C@H](CO)[C@@H](O)[C@H]2O)n1 [Compound 1, 2-β-D-Ribofuranosylthiazole-4-Carboxamide]
Percent Treated Animals/Control Animals ([1]; Ex. 7a/8, saline with tween/80, 12.5 mg/Kg IP once daily x9): 110%
Treated Group Survival Time (median) ([1]; Ex. 7a/8, saline with tween/80, 12.5 mg/Kg IP once daily x9, control 12.6): 13.9 days
Percent Treated Animals/Control Animals ([1]; Ex. 7a/8, saline with tween/80, 25 mg/Kg IP once daily x9): 113%
Treated Group Survival Time (median) ([1]; Ex. 7a/8, saline with tween/80, 25 mg/Kg IP once daily x9, control 12.6): 14.3 days
Percent Treated Animals/Control Animals ([1]; Ex. 7a/8, saline with tween/80, 50 mg/Kg IP once daily x9): 121%
Treated Group Survival Time (median) ([1]; Ex. 7a/8, saline with tween/80, 50 mg/Kg IP once daily x9, control 12.6): 15.3 days
Percent Treated Animals/Control Animals ([1]; Ex. 7a/8, saline with tween/80, 100 mg/Kg IP once daily x9): 145%
Treated Group Survival Time (median) ([1]; Ex. 7a/8, saline with tween/80, 100 mg/Kg IP once daily x9, control 12.6): 18.3 days
Percent Treated Animals/Control Animals ([1]; Ex. 7a/8, saline with tween/80, 200 mg/Kg IP once daily x9): 150%
Treated Group Survival Time (median) ([1]; Ex. 7a/8, saline with tween/80, 200 mg/Kg IP once daily x9, control 12.6): 19.0 days
Percent Treated Animals/Control Animals ([1]; Ex. 7a/8, saline with tween/80, 400 mg/Kg IP once daily x9): 161%
Treated Group Survival Time (median) ([1]; Ex. 7a/8, saline with tween/80, 400 mg/Kg IP once daily x9, control 12.6): 20.3 days
surviving animals judged as no-take ([1]; Ex. 7a/8, 50 mg/Kg, thirty days): one drug treated animal survived and was judged as a no-take
Percent Treated Animals/Control Animals ([1]; Ex. 7b, water, 300 mg/Kg IP once daily x9): 198%
Treated Group Survival Time (median) ([1]; Ex. 7b, water, 300 mg/Kg IP once daily x9, control 11.0): 21.8 days
Percent Treated Animals/Control Animals ([1]; Ex. 7b, water, 400 mg/Kg IP once daily x9): 224%
Treated Group Survival Time (median) ([1]; Ex. 7b, water, 400 mg/Kg IP once daily x9, control 11.0): 24.7 days
Percent Treated Animals/Control Animals ([1]; Ex. 7b, water, 500 mg/Kg IP once daily x9): 190%
Treated Group Survival Time (median) ([1]; Ex. 7b, water, 500 mg/Kg IP once daily x9, control 11.0): 21.8 days
Percent Treated Animals/Control Animals ([1]; Ex. 7b, water, 600 mg/Kg IP once daily x9): 234%
Treated Group Survival Time (median) ([1]; Ex. 7b, water, 600 mg/Kg IP once daily x9, control 11.0): 25.8 days
Percent Treated Animals/Control Animals ([1]; Ex. 7b, water, 700 mg/Kg IP once daily x9): 245%
Treated Group Survival Time (median) ([1]; Ex. 7b, water, 700 mg/Kg IP once daily x9, control 11.0): 27.0 days
Percent Treated Animals/Control Animals ([1]; Ex. 7b, water, 800 mg/Kg IP once daily x9): 245%
Treated Group Survival Time (median) ([1]; Ex. 7b, water, 800 mg/Kg IP once daily x9, control 11.0): 27.0 days
survivors judged as cured ([1]; Ex. 7b, 700 mg/Kg, thirty days): A survivor
survivors judged as cured ([1]; Ex. 7b, 800 mg/Kg, thirty days): A survivor
Percent Treated Animals/Control Animals ([1]; Ex. 7c, water, 300 mg/Kg IP once daily x9): 193%
Treated Group Survival Time (median) ([1]; Ex. 7c, water, 300 mg/Kg IP once daily x9, control 11.9): 23.0 days
Percent Treated Animals/Control Animals ([1]; Ex. 7c, water, 400 mg/Kg IP once daily x9): 201%
Treated Group Survival Time (median) ([1]; Ex. 7c, water, 400 mg/Kg IP once daily x9, control 11.9): 24.0 days
Percent Treated Animals/Control Animals ([1]; Ex. 7c, water, 500 mg/Kg IP once daily x9): 210%
Treated Group Survival Time (median) ([1]; Ex. 7c, water, 500 mg/Kg IP once daily x9, control 11.9): 25.0 days
Percent Treated Animals/Control Animals ([1]; Ex. 7c, water, 600 mg/Kg IP once daily x9): 237%
Treated Group Survival Time (median) ([1]; Ex. 7c, water, 600 mg/Kg IP once daily x9, control 11.9): 28.3 days
Percent Treated Animals/Control Animals ([1]; Ex. 7c, water, 700 mg/Kg IP once daily x9): 86%
Treated Group Survival Time (median) ([1]; Ex. 7c, water, 700 mg/Kg IP once daily x9, control 11.9): 10. day
Percent Treated Animals/Control Animals ([1]; Ex. 7c, water, 800 mg/Kg IP once daily x9): 99%
Treated Group Survival Time (median) ([1]; Ex. 7c, water, 800 mg/Kg IP once daily x9, control 11.9): 11.8 days
animals judged as a cure ([1]; Ex. 7c, 500 mg/Kg, thirty days): one animal
animal mortality attributed to drug toxicity ([1]; Example 7b, day six cut-off): only one instance
activity against P388 lymphocytic leukemia ([1]; Examples 7 and 8, multiple dose): active antitumor agents; also recorded: active against P388 lymphocytic leukemia
DN 2 (Decision Network) criteria of the National Cancer Institute ([1]; P388): successfully passed
antitumor activity (malignant tumors): effective in vivo antitumor agents
antitumor activity (malignant tumors; listed as 2-β-D-ribofuranosylthiazole-4-carboxamide): positive antitumor activity; also recorded: significant antitumor activity in vivo
crossing of the blood brain barrier [2]: successful crossing of the blood brain barrier; also recorded: successfully crosses the blood brain barrier
in vitro antiviral activity [3]: only moderate
in vitro antiviral activity (type 3 rhinovirus): only moderate
spectrum of in vitro antiviral activity, preliminary (viruses): marginal in vitro activity
